Patent US10463044B2, “Molecules that inhibit efflux pumps in multi-drug resistant bacteria and uses thereof” (priority 2014, dated 2019)
Where two headings read alike, the source gives them in different places.

Legend:
[1] = tested on: tetracycline resistant E. coli (tetA efflux pump); assay type: cell-based, Escherichia coli
Protocol: However, the bacterial strains used herein are multidrug resistant and the effect of hydraphiles on the inhibition of resistance mechanism (efflux pumps) was not known. The hydraphiles and the controls were tested next to see whether they could recover the activity of antibiotics against efflux pump expressing Gram-positive and Gram-negative bacteria. The MIC of antibiotics were determined in the presence of ½ [MIC] or ¼ [MIC] of each hydraphile or the controls used.

HEK-293 cells = assay type: cell-based, human
Excerpt: It could be argued that hydraphiles could also localize and disrupt the mammalian cell membranes. […] These hydraphiles increased the permeability of E. coli cells at ½ MIC concentrations. […] It is concluded that C8-C14 hydraphiles can selectively increase the permeability of bacterial cells without affecting the permeability of mammalian cells. […] DMSO and Triton X-100 were used as controls.

[2] = tested on: tetracycline resistant E. coli (tetA efflux pump); assay: microbe, parasite or virus in culture; assay type: cell-based, Escherichia coli; settings: microtiter, inhibition greater than 80% considered as the MIC
Excerpt: Among the organisms studied are several strains of the bacterium E. coli.
Minimal Inhibitory Concentration (MIC) Procedure. […] Streak the E. coli (DH5α or K-12 MG1655) strain on L.B agar plates. […] Prepare initial concentration of all the compounds required. • 5. […] Vortex each test tube for 2-3 seconds. • 9. […] Vortex each test tube for 2-3 seconds. • 11. […]
(§1) The minimal inhibitory concentrations (MIC) of all the compounds against three bacterial strains were first determined using the microtiter technique as described above. […] Antimicrobial property of hydraphiles is attributed to the disruption of ion homeostasis in bacteria.

S. aureus 1199B = assay: MIC, S. aureus 1199B; assay type: cell-based, Staphylococcus aureus
Excerpt: K. pneumoniae (ATCC BAA 2146; another Gram-negative bacterium) that expresses multiple classes of efflux pumps and NDM-1 gene was also used. This K. pneumoniae is a clinically relevant strain that was isolated from a patient. Gram-positive S. aureus 1199B was used that overexpresses the NorA efflux pump. Since ethidium bromide and norfloxacin are the substrates of efflux pumps, S. aureus 1199B was used to evaluate the activity of efflux pumps in the presence of the hydraphiles and other membrane disruptors.
as §1

NorA efflux pump [3] = molecular target: T1, NorA efflux pump (Staphylococcus aureus, UniProt P0A0J7); assay: Ethidium bromide accumulation in S. aureus 1199B; assay type: cell-based; settings: compound at 4 μM
T1 construct: Gram-positive S. aureus 1199B was used that overexpresses the NorA efflux pump; endogenous in cells; host or cells: S. aureus 1199B
T1 sequence (P0A0J7 whole entry): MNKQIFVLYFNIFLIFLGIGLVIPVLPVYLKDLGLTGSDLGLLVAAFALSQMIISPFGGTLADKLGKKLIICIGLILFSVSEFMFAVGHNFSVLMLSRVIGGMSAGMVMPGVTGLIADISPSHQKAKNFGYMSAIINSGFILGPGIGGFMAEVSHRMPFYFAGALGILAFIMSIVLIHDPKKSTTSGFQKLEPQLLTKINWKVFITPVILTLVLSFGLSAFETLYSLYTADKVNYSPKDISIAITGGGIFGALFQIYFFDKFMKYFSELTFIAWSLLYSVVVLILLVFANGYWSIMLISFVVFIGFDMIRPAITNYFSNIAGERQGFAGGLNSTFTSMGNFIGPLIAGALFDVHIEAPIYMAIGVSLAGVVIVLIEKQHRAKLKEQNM
Protocol: To determine if the activity of efflux pump and accumulation of substrate in the cell cytoplasm was affected by hydraphiles, the S. aureus 1199B strain overexpressing the NorA efflux pump was used. Since ethidium bromide (EB) is one of the substrates of the norA efflux pump, fluorescence from DNA-EB complex was utilized to measure effect of hydraphiles on the norA efflux pump. First, EB was added to the S. aureus 1199B cells followed by hydraphiles or the controls. If the hydraphiles allows for EB accumulation in the cell cytoplasm, an increase in fluorescence would be expected. […] Next step was to determine if the accumulation of EB in the cell cytoplasm was due to the ability of hydraphiles to inhibit the activity of the norA efflux pump or just a simple membrane disruption mechanism.

NorA efflux pump [4] = molecular target: T1, NorA efflux pump; assay: Ethidium bromide release from preloaded S. aureus 1199B (efflux pump inhibition); assay type: cell-based; settings: compound at 4 μM
Protocol: In a following experiment, the ability of hydraphiles to inhibit the activity of efflux pumps was determined. Specifically, the S. aureus cells were preloaded with EB using 100 μM CCCP. The cells were washed to remove extracellular EB and CCCP. The cells were then treated with hydraphiles. If hydraphiles inhibit the activity of efflux pumps, then there should be small or no change in fluorescence of EB-DNA complex. […] However, if there is no effect of hydraphiles on the efflux pump activity, EB would be released resulting in a decrease in fluorescence.

HeLa = assay: Cytotoxicity of hydraphiles to HeLa (XTT assay); settings: concentration not given
Cos-7 = assay: Cytotoxicity of hydraphiles to Cos-7 (XTT assay); settings: concentration not given
HEK-293 = assay: Cytotoxicity of hydraphiles to HEK-293 (XTT assay); settings: concentration not given
E. coli cells = assay: Potassium release from E. coli cells (potassium selective electrode); settings: control
Protocol: This change in potassium ion concentrations was measured using a Potassium selective electrode. […] Gramicidin D and valinomycin were used as controls. […] The potassium transport ability of C8-C14 hydraphiles was then tested at 4 μM.

Tet^R E. coli = assay: Resistance development by sequential culturing
Excerpt: Sequential culturing method was used to determine if bacteria could develop resistance to the hydraphiles.

[5] = amphiphile/control 1700 μM (0.1%)
[6] = amphiphile 1 μM (½[MIC] for C14 hydraphile)

Triton X-100 [reference compound]
[Tetracycline] μM in combination ([1]; amphiphile/control 20 μM): 450 ± 100 µM
Fold Enhancement [1, 5]: 2-fold
[Tetracycline] μM in combination [1, 5]: 450 ± 100 µM
viability and permeability of HEK-293 cells (HEK-293 cells): killed all the HEK-293 cells

N#CC(C#N)=NNc1cccc(Cl)c1 [CCCP]
Minimal Inhibitory Concentrations (MIC) E. coli (Tet^R) ([2]; compound alone): 56 µM
Fold Enhancement [1, 6]: 1-fold
[Antibiotic] μM / Used (μM) in combination [1, 6]: 900 µM
Fold Enhancement ([1]; amphiphile/control 21 μM): 2-fold
[Tetracycline] μM in combination ([1]; amphiphile/control 21 μM): 450 µM
[Tetracycline] μM in combination ([1]; amphiphile/control 42 μM): 225 µM
Minimal Inhibitory Concentrations (MIC) S. aureus 1199B (S. aureus 1199B; compound alone, inhibition greater than 80% considered as the MIC): ≤4 µM
accumulation of ethidium bromide (EB) in the cell cytoplasm (NorA efflux pump [3]): much lower
inhibition of NorA activity, lower than that of hydraphiles (NorA efflux pump [4]): 30%
cytotoxicity to HeLa (control) (HeLa): cytotoxic
cytotoxicity to Cos-7 (control) (Cos-7): cytotoxic
cytotoxicity to HEK-293 (control) (HEK-293): cytotoxic

CC(C)[C@@H]1NC(=O)[C@H](C)OC(=O)[C@@H](C(C)C)NC(=O)[C@@H](C(C)C)OC(=O)[C@H](C(C)C)NC(=O)[C@H](C)OC(=O)[C@@H](C(C)C)NC(=O)[C@@H](C(C)C)OC(=O)[C@H](C(C)C)NC(=O)[C@H](C)OC(=O)[C@@H](C(C)C)NC(=O)[C@@H](C(C)C)OC1=O [Valinomycin, reference compound]
Fold Enhancement ([1]; amphiphile/control 20 μM): 2-fold
[Tetracycline] μM in combination ([1]; amphiphile/control 20 μM): 450 ± 100 µM
ion transport from E. coli (potassium) (E. coli cells): no change in ion transport

CN(C)c1ccc(O)c2c1C[C@H]1C[C@H]3[C@H](N(C)C)C(O)=C(C(N)=O)C(=O)[C@@]3(O)C(O)=C1C2=O [minocycline]
time in which Tet^R E. coli developed resistance (Tet^R E. coli): 4 to 6 days

COC(=O)[C@H]1[C@H]2C[C@@H]3c4[nH]c5cc(OC)ccc5c4CCN3C[C@H]2C[C@@H](OC(=O)c2cc(OC)c(OC)c(OC)c2)[C@@H]1OC [Reserpine]
MIC ([2]; Escherichia coli, read-out: Minimal Inhibitory Concentrations (MIC) E. coli (Tet^R), compound alone): > 128 µM
Fold Enhancement ([1]; amphiphile/control 64 μM): 2-fold
[Tetracycline] μM in combination ([1]; amphiphile/control 64 μM): 450 µM
[Tetracycline] μM in combination ([1]; amphiphile/control 128 μM): 225 µM
MIC (S. aureus 1199B; Staphylococcus aureus, 1199B, read-out: Minimal Inhibitory Concentrations (MIC) S. aureus 1199B): > 128 µM
accumulation of ethidium bromide (EB) in the cell cytoplasm (NorA efflux pump [3]): much lower
inhibition of NorA activity, lower than that of hydraphiles (NorA efflux pump [4]): 30%
